How the values were obtained:
[1] = Nonclinical pharmacokinetics in rats; set-up: species or system rat; conditions: in vivo
Method: A sandwich immunoassay was developed using an affinity purified goat polyclonal antibody, specific to h-SCP that was pre-coated onto a microplate with integrated electrodes. h-SCP molecules present in the sample will bind to the capture polyclonal antibody coated on the plate. After washing away any unbound substances, a sulfo-tagged mouse monoclonal anti-h-SCP antibody was added. This conjugated antibody will bind to the h-SCP molecules captured on the microplate and the quantity of analyte was determined by electrochemiluminescence. The amount of signal generated is directly proportional to the h-SCP concentration in the sample or standard. The standard curve range is 3.125-1600 pg/mL with a quantifiable range from 10-800 pg/mL. A sample volume of 25 μL (in duplicate) is required for this assay. This immunoassay is specific for human and dog stresscopin and human urocortin III (h-UCN3). […] After completion of the analysis, based on a comparison of reference standards between the ELISA and HPLC method, a correction factor of 1.57 was applied to all bioanalytical data.
The nonclinical pharmacokinetics of h-SCP (SEQ ID NO:1) and pegylated stresscopin-like peptides were studied in rats, dogs, and cynomolgus monkeys (cyno). Nonclinical pharmacokinetic studies focused on characterization of IV infusion at pharmacologically relevant dose levels, supplemented with IV and SC bolus and toxicokinetic analysis.

[2] = Human pharmacokinetics, heart failure subjects, 7.5-hour continuous ascending dose IV infusion; conditions: in vivo; for Tmax: median
Method: In heart failure subjects following a 7.5-hour continuous ascending dose IV infusion of h-SCP (SEQ ID NO:1) noncompartmental pharmacokinetic analyses were performed on plasma concentrations of h-SCP (SEQ ID NO:1). The pharmacokinetics of h-SCP (SEQ ID NO:1) in heart failure subjects appeared to be similar to that of healthy subjects. […] Within 30 minutes, plasma h-SCP (SEQ ID NO:1) was reduced to equal or less than 20% of the h-SCP (SEQ ID NO:1) level at the end of the infusion (FIG. 16B).

[3] = female, rat IV infusion 3 hours, F, 83.3 ng/kg/min
[4] = female, rat IV infusion 3 hours, F, 167 ng/kg/min
[5] = female, rat IV infusion 3 hours, F, 333 ng/kg/min
[6] = male, 3000 ng/kg, rat IV bolus, M, 3,000 ng/kg
[7] = male, 10000 ng/kg, rat IV bolus, M, 10,000 ng/kg
[8] = male, 300000 ng/kg, rat IV bolus, M, 300,000 ng/kg
[9] = male, rat IV infusion 3 hours, M, 83.3 ng/kg/min
[10] = male, rat IV infusion 3 hours, M, 167 ng/kg/min
[11] = male, rat IV infusion 3 hours, M, 333 ng/kg/min
[12] = infusion rate 1/3/9 ng/kg/min, mean, N = 2
[13] = infusion rate 3/9/18 ng/kg/min, mean, N = 2
[14] = infusion rate 3/18/54 ng/kg/min, mean, N = 2

Substance: H-TKFTLSLDVPTNIMNLLFNIAKAKNLRAQAAANAHLMAQI-NH2 [SEQ ID NO: 1, TKFTLSLDVPTNIMNLLFNIAKAKNLRAQAAANAHLMAQI-NH2]
- AUC(0-inf) [1, 3]: 1.47 ng·h/mL
- Cmax [1, 3]: 0.906 ng/mL
- clearance ([1]; female, rat IV infusion 3 hours, F, 83.3 ng/kg/min, read-out: CL): 107 mL/min/kg
- AUC(0-inf) [1, 4]: 1.15 ng·h/mL
- Cmax [1, 4]: 0.683 ng/mL
- clearance ([1]; female, rat IV infusion 3 hours, F, 167 ng/kg/min, read-out: CL): 271 mL/min/kg
- AUC(0-inf) [1, 5]: 4.45 ng·h/mL
- Cmax [1, 5]: 2.67 ng/mL
- clearance ([1]; female, rat IV infusion 3 hours, F, 333 ng/kg/min, read-out: CL): 130 mL/min/kg
- half-life ([1]; female, rat, iv, t1/2 alpha): 0.0317 h
- half-life ([1]; female, rat, iv, t1/2 terminal): 0.97 h
- AUC(0-inf) [1, 6]: 0.522 ng·h/mL
- Cmax [1, 6]: 4.8 ng/mL
- clearance ([1]; male, 3000 ng/kg, rat IV bolus, M, 3,000 ng/kg, read-out: CL): 109 mL/min/kg
- AUC(0-inf) [1, 7]: 1.5 ng·h/mL
- Cmax [1, 7]: 13.6 ng/mL
- clearance ([1]; male, 10000 ng/kg, rat IV bolus, M, 10,000 ng/kg, read-out: CL): 116 mL/min/kg
- Cmax ([1]; male, 50000 ng/kg, rat IV bolus, M, 50,000 ng/kg): 224 ng/mL
- clearance ([1]; male, 50000 ng/kg, rat IV bolus, M, 50,000 ng/kg, read-out: CL): 41.8 mL/min/kg
- AUC(0-inf) [1, 8]: 99.7 ng·h/mL
- Cmax [1, 8]: 780 ng/mL
- clearance ([1]; male, 300000 ng/kg, rat IV bolus, M, 300,000 ng/kg, read-out: CL): 50.1 mL/min/kg
- AUC(0-inf) [1, 9]: 1.24 ng·h/mL
- Cmax [1, 9]: 0.752 ng/mL
- clearance ([1]; male, rat IV infusion 3 hours, M, 83.3 ng/kg/min, read-out: CL): 116 mL/min/kg
- AUC(0-inf) [1, 10]: 2.43 ng·h/mL
- Cmax [1, 10]: 1.53 ng/mL
- clearance ([1]; male, rat IV infusion 3 hours, M, 167 ng/kg/min, read-out: CL): 109 mL/min/kg
- AUC(0-inf) [1, 11]: 4.85 ng·h/mL
- Cmax [1, 11]: 2.86 ng/mL
- clearance ([1]; male, rat IV infusion 3 hours, M, 333 ng/kg/min, read-out: CL): 118 mL/min/kg
- half-life ([1]; rat, alpha-phase half-life (t1/2 alpha)): < 0.0833 h
- time to apparent steady-state plasma concentration after initiation of infusion ([1]; rat, iv): ≤ 2 h
- clearance ([1]; rat, rats, IV bolus, read-out: clearance values): 42 to 116 mL/min/kg
- AUC(0-inf) ([2]; infusion rate 0.3/1/3 ng/kg/min, N = 1): 3.4 ng·h/mL
- clearance ([2]; infusion rate 0.3/1/3 ng/kg/min, N = 1, read-out: CL (converted)): 3.17 mL/min/kg
- Cmax ([2]; infusion rate 0.3/1/3 ng/kg/min, mean, N = 2): 0.826 ng/mL
- Tmax ([2]; infusion rate 0.3/1/3 ng/kg/min, N = 2): 6.25 h
- AUC(0-inf) [2, 12]: 6.72 ng·h/mL
- Cmax [2, 12]: 1.98 ng/mL
- clearance ([2]; infusion rate 1/3/9 ng/kg/min, mean, N = 2, read-out: CL (converted)): 5.33 mL/min/kg
- Tmax ([2]; infusion rate 1/3/9 ng/kg/min, N = 2): 7.04 h
- AUC(0-inf) [2, 13]: 19 ng·h/mL
- Cmax [2, 13]: 4.77 ng/mL
- clearance ([2]; infusion rate 3/9/18 ng/kg/min, mean, N = 2, read-out: CL (converted)): 4 mL/min/kg
- Tmax ([2]; infusion rate 3/9/18 ng/kg/min, N = 2): 6.75 h
- AUC(0-inf) [2, 14]: 24.9 ng·h/mL
- Cmax [2, 14]: 6.41 ng/mL
- clearance ([2]; infusion rate 3/18/54 ng/kg/min, mean, N = 2, read-out: CL (converted)): 7.67 mL/min/kg
- Tmax ([2]; infusion rate 3/18/54 ng/kg/min, N = 2): 6.04 h
- AUC(0-inf) ([2]; infusion rate 9/18/36 ng/kg/min, mean, N = 2): 33.8 ng·h/mL
- clearance ([2]; infusion rate 9/18/36 ng/kg/min, mean, N = 2, read-out: CL (converted)): 5.5 mL/min/kg
- half-life ([2]; infusion rate 9/18/36 ng/kg/min, mean, N = 2, read-out: T1/2, effective (converted)): 3.95 h
- Cmax ([2]; infusion rate 9/18/36 ng/kg/min, mean, N = 3): 5.52 ng/mL
- Tmax ([2]; infusion rate 9/18/36 ng/kg/min, N = 3): 7.48 h
- AUC(0-inf) ([2]; infusion rate 18/36/45 ng/kg/min, N = 1): 51.5 ng·h/mL
- clearance ([2]; infusion rate 18/36/45 ng/kg/min, N = 1, read-out: CL (converted)): 4.83 mL/min/kg
- Cmax ([2]; infusion rate 18/36/45 ng/kg/min, mean, N = 2): 8.04 ng/mL
- Tmax ([2]; infusion rate 18/36/45 ng/kg/min, N = 2): 7.34 h
- clearance ([2]; read-out: Mean systemic clearance): 3.17 to 7.67 mL/min/kg
- half-life ([2]; read-out: Mean terminal half-life): 0.24 to 7.04 h
- half-life ([2]; read-out: effective half-life): 1.32 to 2.51 h

From patent publication US20110105397A1, “METHOD FOR TREATING HEART FAILURE WITH STRESSCOPIN-LIKE PEPTIDES” (priority 2009, published 2011)
